From US9796671B2, “Aurora kinase inhibitors” (REGENTS OF THE UNIVERSITY OF MINNESOTA, priority 2012, dated 2017)

Tests used:
A549 cells = test: Polyploidy induction (immunofluorescence microscopy); assay type: cell-based, human; details: A549, 1 μM, 48 h
Procedure: A549 cells are seeded in four-chamber slides and cultured overnight. The cells are then treated with DMSO or Compound 1 (1 μM) for 48 h at 37° C. After treatment, the cells are washed with PBS and fixed with methanol for 12 hours, followed by blocking with 3% PBS for 1 hour. The cells are then incubated with α-tubulin antibodies (1:100) overnight and DNA is stained with 4′-6-diamidino-2-phenylindole (DAPI, Pierce) for 30 minutes at room temperature. The cells are evaluated by fluorescent microscopy.
Aurora B inhibition leads to failure in cytokinesis and abnormal exit from mitosis, which could result in polyploidy cells, cell cycle arrest, and ultimately apoptosis. The ability to induce polyploidy cells was further examined in A549 cells treated or not treated with Compound 1. […] In addition, Compound 1 treatment for 48 hours caused an increase in the number of A549 and H520 cells occupying the G2/M phase. Moreover, exposure of these cells to Compound 1 for 72 hours induced apoptosis as measured by Annexin V/PI staining. For example, exposure to 5 μM Compound 1 induced 48% or 82% apoptosis in A549 cells and H520 cells, compared to 8% or 38% in untreated control cells, respectively.

[1] = tested on: histone H3 phosphorylation on Ser10; test: Histone H3 (Ser10) phosphorylation in lung cancer cells (Western blot); assay type: cell-based; details: dose- and time-dependent
From the text: (§1) Proteins are resolved by SDS-PAGE and transferred onto polyvinylidene difluoride membranes (Millipore, Mass.), which are blocked with nonfat milk and hybridized with specific primary antibodies. The protein bands are visualized using an enhanced chemiluminescence reagent (GE Healthcare, Pittsburgh, Pa.) after hybridization with a horseradish peroxidase-conjugated secondary antibody.
Phosphorylation of a highly conserved serine residue (Ser10) in histone H3 is thought to be crucial for entry into mitosis.

MRC-5 normal lung cells = test: Cytotoxicity (MTS assay); assay type: cell-based
Procedure: To estimate the cytotoxicity of Compound 1, cells are seeded (8×10^3 cells per well) in 96-well plates and cultured overnight. Cells are fed with fresh medium and treated with different doses of Compound 1. After culturing for various times, the cytotoxicity of Compound 1 is measured using an MTS assay kit (Promega, Madison, Wis.) according to the manufacturer's instructions.
The toxicity of Compound 1 on both MRC-5 normal lung cells and A549 lung cancer cells was then examined.

[2] = tested on: phosphorylation of Akt (Ser473), GSK3β (Ser9), p70S6K (Thr389) and S6 (Ser235,236) in A549 cells; test: Western blot of Akt and downstream signaling in cells; assay type: cell-based, human
From the text: as §1
(§2) According to the kinase profiler assay results, Akt2 also might be a potential target of Compound 1. An Akt1 and Akt2 in vitro kinase assays was performed.

[3] = tested on: phosphorylation of Akt (Ser473), GSK3β (Ser9), p70S6K (Thr389) and S6 (Ser235,236) in H520 cells; test: as above; assay type: cell-based, human
From the text: as §1, §2

MKK7 beta = molecular target: T1, MKK7 beta (Homo sapiens, UniProt O14733); test: Kinase profile assay (Millipore); assay type: biochemical; details: 5 μM
T1 construct: purchased Millipore
Procedure: (§3) A kinase profile assay was performed by Millipore, to examine other potential targets of Compound 1. Only Akt2 activity was suppressed more than 50% after 5 μM compound 1 treatment, compared with the control (Table 2). In addition, the kinase activity of Aurora A was decreased less than 25% at 5 μM Compound 1.

MSK2 = molecular target: T2, MSK2 (Homo sapiens, UniProt O75676); test: Kinase profile assay (Millipore); assay type: biochemical; details: read-out: kinase activity compared with the control
T2 construct: purchased Millipore
Procedure: as §3

JNK2 alpha2 = molecular target: T3, JNK2 alpha2 (Homo sapiens, UniProt P45984); test: Kinase profile assay (Millipore); assay type: biochemical; details: 5 μM
T3 construct: purchased Millipore
Procedure: as §3

PI3-K beta = PI3-K beta (Homo sapiens, UniProt P42338); test: Kinase profile assay (Millipore); assay type: biochemical; details: read-out: kinase activity compared with the control
Procedure: as §3

GSK3 alpha = molecular target: T4, GSK3 alpha (Homo sapiens, UniProt P49840); test: Kinase profile assay (Millipore); assay type: biochemical; details: read-out: kinase activity compared with the control
T4 construct: purchased Millipore
Procedure: as §3

LKB1 = molecular target: T5, LKB1 (Homo sapiens, UniProt Q15831); test: Kinase profile assay (Millipore); assay type: biochemical; details: read-out: kinase activity compared with the control
T5 construct: purchased Millipore
Procedure: as §3

IKK alpha = molecular target: T6, IKK alpha (Homo sapiens, UniProt O15111); test: Kinase profile assay (Millipore); assay type: biochemical; details: read-out: kinase activity compared with the control
T6 construct: purchased Millipore
Procedure: as §3

p70S6K = molecular target: T7, p70S6K (Homo sapiens, UniProt P23443); test: Kinase profile assay (Millipore); assay type: biochemical; details: read-out: kinase activity compared with the control
T7 construct: purchased Millipore
Procedure: as §3

Aurora A = molecular target: T8, Aurora A (Homo sapiens, UniProt O14965); test: Kinase profile assay (Millipore); assay type: biochemical
T8 construct: purchased Millipore
T8 sequence (O14965 1-403): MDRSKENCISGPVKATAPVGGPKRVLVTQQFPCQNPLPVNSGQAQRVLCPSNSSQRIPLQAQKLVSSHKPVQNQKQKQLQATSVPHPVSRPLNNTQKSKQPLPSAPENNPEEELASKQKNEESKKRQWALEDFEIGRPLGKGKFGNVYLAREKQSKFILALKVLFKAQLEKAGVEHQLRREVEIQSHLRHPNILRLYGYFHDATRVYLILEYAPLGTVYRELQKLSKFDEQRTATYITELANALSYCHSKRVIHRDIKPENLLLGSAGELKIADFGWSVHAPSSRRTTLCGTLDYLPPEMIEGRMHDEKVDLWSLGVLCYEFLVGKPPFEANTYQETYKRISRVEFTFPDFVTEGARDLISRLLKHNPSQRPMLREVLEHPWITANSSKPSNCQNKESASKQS
Procedure: as §3

FGFR1 = molecular target: T9, FGFR1 (Homo sapiens, UniProt P11362); test: Kinase profile assay (Millipore); assay type: biochemical; details: read-out: kinase activity compared with the control
T9 construct: purchased Millipore
Procedure: as §3

CSK = molecular target: T10, CSK (Homo sapiens, UniProt P41240); test: Kinase profile assay (Millipore); assay type: biochemical; details: 5 μM
T10 construct: purchased Millipore
Procedure: as §3

Fyn = molecular target: T11, Fyn (Homo sapiens, UniProt P06241); test: Kinase profile assay (Millipore); assay type: biochemical; details: read-out: kinase activity compared with the control
T11 construct: purchased Millipore
Procedure: as §3

Akt2 = Akt2 (Homo sapiens, UniProt P31751); test: Akt2 in vitro kinase assay; assay type: biochemical
Procedure: as §2

Sequence of Akt2 (P31751 whole entry, species assumed): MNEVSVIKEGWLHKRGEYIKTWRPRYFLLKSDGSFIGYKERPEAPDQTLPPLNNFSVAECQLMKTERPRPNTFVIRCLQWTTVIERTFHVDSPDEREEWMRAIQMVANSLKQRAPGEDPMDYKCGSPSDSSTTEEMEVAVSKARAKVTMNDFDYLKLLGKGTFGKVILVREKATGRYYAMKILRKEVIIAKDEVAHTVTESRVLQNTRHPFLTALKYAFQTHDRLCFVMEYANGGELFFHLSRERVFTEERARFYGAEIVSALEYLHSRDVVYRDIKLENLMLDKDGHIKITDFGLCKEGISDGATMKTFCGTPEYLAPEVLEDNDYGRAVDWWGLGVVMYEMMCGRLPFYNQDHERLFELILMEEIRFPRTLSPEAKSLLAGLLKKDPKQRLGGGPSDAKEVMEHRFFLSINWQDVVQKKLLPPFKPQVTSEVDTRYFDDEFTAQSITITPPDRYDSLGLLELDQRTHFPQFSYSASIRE
T3 sequence (P45984 whole entry): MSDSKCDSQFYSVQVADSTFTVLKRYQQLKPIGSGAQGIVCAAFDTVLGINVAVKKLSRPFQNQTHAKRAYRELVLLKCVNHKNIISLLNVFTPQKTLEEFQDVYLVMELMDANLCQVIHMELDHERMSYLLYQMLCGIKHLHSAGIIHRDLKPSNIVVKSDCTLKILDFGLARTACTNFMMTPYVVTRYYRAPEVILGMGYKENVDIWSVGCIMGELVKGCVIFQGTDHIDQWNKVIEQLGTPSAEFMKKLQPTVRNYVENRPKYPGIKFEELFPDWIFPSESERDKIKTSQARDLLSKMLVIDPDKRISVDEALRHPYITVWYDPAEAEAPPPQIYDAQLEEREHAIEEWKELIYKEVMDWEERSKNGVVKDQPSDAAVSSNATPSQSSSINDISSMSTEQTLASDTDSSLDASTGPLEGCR
T10 sequence (P41240 whole entry, species assumed): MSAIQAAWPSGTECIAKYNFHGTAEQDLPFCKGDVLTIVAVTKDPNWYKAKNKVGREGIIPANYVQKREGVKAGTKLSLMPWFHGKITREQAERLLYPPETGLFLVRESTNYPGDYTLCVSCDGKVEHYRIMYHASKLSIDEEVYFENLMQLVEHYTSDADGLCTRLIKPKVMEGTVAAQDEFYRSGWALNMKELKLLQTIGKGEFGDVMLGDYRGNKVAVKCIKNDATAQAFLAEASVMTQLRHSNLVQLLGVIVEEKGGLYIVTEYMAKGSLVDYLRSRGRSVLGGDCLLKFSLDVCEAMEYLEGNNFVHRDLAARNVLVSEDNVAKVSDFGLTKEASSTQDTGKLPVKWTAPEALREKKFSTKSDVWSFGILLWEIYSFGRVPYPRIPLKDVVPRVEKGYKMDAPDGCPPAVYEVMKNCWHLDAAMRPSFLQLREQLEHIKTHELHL
T5 sequence (Q15831 whole entry, species assumed): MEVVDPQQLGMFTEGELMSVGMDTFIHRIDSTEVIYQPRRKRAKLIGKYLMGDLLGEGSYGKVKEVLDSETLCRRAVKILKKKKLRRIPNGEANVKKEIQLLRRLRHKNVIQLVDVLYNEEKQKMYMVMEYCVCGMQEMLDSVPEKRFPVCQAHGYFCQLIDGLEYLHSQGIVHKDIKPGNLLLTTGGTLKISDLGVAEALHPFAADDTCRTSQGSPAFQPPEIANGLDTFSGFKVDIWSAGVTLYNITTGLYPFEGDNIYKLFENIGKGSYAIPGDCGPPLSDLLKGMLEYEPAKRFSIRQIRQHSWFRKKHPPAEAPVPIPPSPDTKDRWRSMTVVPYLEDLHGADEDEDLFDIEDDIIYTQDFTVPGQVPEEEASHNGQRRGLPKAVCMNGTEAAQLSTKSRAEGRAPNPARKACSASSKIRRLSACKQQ
T5 sequence (Q7RTN6 whole entry partner, species assumed): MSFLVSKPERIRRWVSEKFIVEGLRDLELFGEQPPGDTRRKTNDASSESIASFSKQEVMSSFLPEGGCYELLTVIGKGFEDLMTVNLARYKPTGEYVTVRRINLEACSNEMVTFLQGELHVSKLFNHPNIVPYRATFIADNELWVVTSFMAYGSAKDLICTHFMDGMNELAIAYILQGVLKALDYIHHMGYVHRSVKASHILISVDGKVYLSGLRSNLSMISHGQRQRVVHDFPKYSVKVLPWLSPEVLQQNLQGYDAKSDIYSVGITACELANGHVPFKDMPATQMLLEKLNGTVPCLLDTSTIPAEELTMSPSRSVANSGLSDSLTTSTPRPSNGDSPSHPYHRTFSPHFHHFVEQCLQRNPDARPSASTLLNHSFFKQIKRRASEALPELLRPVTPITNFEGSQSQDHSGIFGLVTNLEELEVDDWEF
T5 sequence (Q9Y376 whole entry partner, species assumed): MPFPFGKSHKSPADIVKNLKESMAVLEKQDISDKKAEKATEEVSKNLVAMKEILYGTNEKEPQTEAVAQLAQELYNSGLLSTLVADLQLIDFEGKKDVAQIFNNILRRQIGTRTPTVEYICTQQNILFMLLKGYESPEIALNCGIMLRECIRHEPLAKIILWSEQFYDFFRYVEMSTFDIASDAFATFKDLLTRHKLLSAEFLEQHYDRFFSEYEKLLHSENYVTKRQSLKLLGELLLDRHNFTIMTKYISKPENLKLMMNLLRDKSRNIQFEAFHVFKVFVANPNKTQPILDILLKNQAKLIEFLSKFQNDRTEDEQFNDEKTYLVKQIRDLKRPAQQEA
Sequence of PI3-K beta (P42338 whole entry, species assumed): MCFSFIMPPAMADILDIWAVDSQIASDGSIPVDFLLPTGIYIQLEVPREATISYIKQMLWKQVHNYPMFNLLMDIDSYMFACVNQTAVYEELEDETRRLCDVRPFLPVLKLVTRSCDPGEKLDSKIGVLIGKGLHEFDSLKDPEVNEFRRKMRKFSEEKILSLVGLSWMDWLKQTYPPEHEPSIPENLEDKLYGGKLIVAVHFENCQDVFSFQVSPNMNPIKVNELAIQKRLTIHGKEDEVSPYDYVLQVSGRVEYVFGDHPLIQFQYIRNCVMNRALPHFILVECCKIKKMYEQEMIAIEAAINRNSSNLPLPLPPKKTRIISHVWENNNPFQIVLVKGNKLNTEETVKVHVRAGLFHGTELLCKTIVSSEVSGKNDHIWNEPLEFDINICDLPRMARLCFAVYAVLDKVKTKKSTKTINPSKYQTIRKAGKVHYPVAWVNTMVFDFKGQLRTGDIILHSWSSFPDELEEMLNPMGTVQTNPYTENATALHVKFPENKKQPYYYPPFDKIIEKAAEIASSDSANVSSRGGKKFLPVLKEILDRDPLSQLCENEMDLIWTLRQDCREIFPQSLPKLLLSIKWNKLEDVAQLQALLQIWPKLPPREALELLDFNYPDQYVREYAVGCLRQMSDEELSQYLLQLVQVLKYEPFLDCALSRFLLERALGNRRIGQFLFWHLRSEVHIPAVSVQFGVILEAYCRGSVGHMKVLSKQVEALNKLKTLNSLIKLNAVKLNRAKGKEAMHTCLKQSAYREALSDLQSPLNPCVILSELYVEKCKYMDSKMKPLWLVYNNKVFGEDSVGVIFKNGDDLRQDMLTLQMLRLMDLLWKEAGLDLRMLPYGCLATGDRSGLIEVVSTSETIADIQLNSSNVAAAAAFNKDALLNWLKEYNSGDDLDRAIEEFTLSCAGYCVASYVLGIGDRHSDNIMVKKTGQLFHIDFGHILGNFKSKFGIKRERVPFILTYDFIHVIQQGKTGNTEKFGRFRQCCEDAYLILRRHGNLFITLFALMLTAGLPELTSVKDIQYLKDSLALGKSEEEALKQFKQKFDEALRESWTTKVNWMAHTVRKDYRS
Sequence of PI3-K beta (P27986 whole entry partner, species assumed): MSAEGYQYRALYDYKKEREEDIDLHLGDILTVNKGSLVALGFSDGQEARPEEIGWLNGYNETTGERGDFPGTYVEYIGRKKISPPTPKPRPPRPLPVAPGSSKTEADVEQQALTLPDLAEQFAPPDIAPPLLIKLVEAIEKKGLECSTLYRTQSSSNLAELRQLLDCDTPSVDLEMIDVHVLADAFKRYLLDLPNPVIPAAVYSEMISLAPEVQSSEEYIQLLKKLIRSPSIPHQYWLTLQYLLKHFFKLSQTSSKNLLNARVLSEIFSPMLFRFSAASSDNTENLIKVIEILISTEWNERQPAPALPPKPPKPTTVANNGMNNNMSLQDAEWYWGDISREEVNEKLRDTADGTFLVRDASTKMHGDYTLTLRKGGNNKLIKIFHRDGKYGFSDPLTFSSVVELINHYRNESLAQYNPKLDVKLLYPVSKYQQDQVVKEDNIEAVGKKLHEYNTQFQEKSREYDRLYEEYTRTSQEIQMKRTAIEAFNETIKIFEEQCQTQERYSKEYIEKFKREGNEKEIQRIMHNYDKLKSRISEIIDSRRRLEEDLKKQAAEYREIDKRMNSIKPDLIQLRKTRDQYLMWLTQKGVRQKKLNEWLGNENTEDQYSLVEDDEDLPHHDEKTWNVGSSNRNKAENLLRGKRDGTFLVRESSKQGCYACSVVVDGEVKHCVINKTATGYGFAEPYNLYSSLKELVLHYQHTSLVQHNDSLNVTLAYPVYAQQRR
T1 sequence (O14733 whole entry): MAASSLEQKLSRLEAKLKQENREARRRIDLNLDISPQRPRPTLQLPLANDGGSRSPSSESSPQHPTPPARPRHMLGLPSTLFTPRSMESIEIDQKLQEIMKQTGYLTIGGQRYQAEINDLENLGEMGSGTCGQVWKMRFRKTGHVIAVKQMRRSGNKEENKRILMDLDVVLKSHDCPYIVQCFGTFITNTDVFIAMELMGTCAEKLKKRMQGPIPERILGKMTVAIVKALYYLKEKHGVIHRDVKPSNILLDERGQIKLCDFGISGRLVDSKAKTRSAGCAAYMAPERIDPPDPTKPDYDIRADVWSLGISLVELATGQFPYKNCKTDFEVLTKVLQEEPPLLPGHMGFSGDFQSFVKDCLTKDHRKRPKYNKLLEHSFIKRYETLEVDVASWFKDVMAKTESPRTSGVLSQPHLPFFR

O=C(/C=C/c1ccc2c(c1)OCO2)/C=C1/C(=O)Nc2ccccc21 [Compound 1] was tested, and the “induction of polyploidy cells” value (A549 cells) was “caused the induction of polyploidy cells”, the “histone H3 phosphorylation on Ser10 in cancer cells” value [1] was “suppressed” and the “cytotoxic effects on MRC-5 normal lung cells” value (MRC-5 normal lung cells; 1 μM or less) was “no obvious cytotoxic effects”. The “toxicity to MRC-5 normal cells” value (MRC-5 normal lung cells; 5 μM, 48 hours) was “not”, the “toxicity on MRC-5 normal lung cells” value (MRC-5 normal lung cells; concentrations greater than 10 μM) was “substantial toxicity” and the “effect on the phosphorylation of Akt or its downstream signaling molecules” value [2] was “no effect”. For the same compound, the “effect on the phosphorylation of Akt or its downstream signaling molecules” value [3] was “no effect”, the “kinase activity compared with the control” value (MKK7 beta) was 94 and the remaining activity at 5 µM (MSK2) was 79%. The “kinase activity compared with the control” value (JNK2 alpha2) was 89, the remaining activity at 5 µM (PI3-K beta) was 103% and the remaining activity at 5 µM (GSK3 alpha) was 85%. The remaining activity at 5 µM (LKB1) was 87%, the remaining activity at 5 µM (IKK alpha) was 83% and the remaining activity at 5 µM (p70S6K) was 72%. The “kinase activity of Aurora A decreased (kinase profile)” value (Aurora A; 5 μM) was “less than 25%”, the remaining activity at 5 µM (Aurora A; Aurora A, read-out: kinase activity compared with the control) was 76% and the remaining activity at 5 µM (FGFR1) was 86%. For the same compound, the “kinase activity compared with the control” value (CSK) was 110, the remaining activity at 5 µM (Fyn) was 99% and the inhibition at 5 µM (Akt2; 5 μM) was 52%. The “concentration inhibiting Akt2 kinase activity in vitro” value (Akt2; discussion statement) was no less than 1 µM.
